# Laboratory results as given in ChEMBL document CHEMBL2069214, “Discovery of triazolopyrimidine-based PDE8B inhibitors: exceptionally ligand-efficient and lipophilic ligand-efficient compounds for the treatment of diabetes” (Bioorg Med Chem Lett, 2012).
# The source made the active and inactive calls. The rule behind the calls is not given here.
# Legend:
# [1] = Intrinsic clearance in human liver microsomes; format: ADME, Microsome; settings: read-out: CLH
# [2] = (§1) Intrinsic clearance in rat liver microsomes; format: ADME, Microsome; settings: liver microsomes, read-out: CLH
# [3] = target: High affinity cAMP-specific and IBMX-insensitive 3',5'-cyclic phosphodiesterase 8B (Homo sapiens, UniProt O95263); assay: Inhibition of PDE8B expressed in Sf9 insect cells
# Chain of High affinity cAMP-specific and IBMX-insensitive 3',5'-cyclic phosphodiesterase 8B (O95263 whole entry): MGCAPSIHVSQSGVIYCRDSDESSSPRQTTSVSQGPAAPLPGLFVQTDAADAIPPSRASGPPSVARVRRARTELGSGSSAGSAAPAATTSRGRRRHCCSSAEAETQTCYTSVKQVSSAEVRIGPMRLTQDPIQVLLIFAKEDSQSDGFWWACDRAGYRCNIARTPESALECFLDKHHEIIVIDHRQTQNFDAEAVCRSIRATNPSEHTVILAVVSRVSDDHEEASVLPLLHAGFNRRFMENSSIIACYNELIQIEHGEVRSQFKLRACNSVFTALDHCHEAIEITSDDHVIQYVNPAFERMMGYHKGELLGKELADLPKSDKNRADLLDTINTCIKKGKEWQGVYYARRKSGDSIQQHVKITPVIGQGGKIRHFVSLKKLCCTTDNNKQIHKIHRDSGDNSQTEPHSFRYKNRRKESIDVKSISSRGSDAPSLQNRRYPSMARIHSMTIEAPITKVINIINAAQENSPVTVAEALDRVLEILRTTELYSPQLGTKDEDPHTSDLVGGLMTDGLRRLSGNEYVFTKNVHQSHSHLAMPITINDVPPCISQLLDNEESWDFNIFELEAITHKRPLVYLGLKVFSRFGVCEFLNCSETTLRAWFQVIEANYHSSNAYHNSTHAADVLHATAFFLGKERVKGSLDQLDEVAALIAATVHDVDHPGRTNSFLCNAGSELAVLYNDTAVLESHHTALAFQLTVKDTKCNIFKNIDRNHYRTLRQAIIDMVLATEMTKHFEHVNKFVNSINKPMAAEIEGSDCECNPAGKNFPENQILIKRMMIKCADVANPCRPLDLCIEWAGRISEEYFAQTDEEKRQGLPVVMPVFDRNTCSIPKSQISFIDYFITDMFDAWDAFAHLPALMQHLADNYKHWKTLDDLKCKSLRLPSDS
# [4] = target: 3',5'-cyclic-AMP phosphodiesterase 4D (Homo sapiens) (UniProt Q08499); assay: Inhibition of PDE4D at 1 uM
# Chain of 3',5'-cyclic-AMP phosphodiesterase 4D (Homo sapiens) (Q08499 whole entry): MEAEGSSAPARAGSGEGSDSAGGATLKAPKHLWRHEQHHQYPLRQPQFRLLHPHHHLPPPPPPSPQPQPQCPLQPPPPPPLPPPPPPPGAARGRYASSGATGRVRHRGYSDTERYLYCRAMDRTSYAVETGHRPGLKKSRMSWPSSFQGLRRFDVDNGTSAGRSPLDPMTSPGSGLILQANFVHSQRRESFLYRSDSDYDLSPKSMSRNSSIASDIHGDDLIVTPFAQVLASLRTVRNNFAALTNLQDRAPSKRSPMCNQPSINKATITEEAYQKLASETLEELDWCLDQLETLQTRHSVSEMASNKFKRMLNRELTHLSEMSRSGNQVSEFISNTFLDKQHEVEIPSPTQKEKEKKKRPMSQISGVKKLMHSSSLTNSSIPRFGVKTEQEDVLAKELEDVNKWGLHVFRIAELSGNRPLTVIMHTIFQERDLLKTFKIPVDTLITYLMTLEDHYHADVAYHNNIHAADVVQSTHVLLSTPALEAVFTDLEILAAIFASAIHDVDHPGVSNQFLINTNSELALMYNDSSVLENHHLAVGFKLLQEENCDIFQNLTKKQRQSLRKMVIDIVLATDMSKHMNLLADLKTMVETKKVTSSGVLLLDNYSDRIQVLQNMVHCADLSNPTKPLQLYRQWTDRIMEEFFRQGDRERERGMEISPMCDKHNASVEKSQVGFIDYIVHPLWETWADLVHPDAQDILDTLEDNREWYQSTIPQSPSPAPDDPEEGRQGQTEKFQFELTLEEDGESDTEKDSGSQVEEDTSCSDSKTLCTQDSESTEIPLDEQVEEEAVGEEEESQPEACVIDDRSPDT
# [5] = target: 3',5'-cyclic-AMP phosphodiesterase 4C (Homo sapiens) (UniProt Q08493); assay: Inhibition of PDE4C at 1 uM
# Chain of 3',5'-cyclic-AMP phosphodiesterase 4C (Homo sapiens) (Q08493 whole entry): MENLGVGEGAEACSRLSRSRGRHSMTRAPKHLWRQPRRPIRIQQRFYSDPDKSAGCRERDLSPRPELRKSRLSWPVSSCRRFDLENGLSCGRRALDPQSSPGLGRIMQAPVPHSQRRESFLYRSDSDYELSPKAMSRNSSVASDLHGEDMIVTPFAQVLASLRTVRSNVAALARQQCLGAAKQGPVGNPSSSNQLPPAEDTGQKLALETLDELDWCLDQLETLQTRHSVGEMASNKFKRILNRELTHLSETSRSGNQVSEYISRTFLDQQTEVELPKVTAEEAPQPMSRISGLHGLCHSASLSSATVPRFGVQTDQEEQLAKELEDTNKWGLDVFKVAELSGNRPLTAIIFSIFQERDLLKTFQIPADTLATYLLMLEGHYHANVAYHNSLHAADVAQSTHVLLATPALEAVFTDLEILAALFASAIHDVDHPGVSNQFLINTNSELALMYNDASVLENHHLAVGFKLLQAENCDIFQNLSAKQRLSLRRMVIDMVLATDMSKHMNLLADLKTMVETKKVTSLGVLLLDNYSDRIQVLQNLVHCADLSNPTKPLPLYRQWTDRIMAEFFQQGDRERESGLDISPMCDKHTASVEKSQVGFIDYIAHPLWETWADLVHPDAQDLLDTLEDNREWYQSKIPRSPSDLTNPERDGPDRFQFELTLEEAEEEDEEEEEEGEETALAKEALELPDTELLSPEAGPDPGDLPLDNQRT
# [6] = Clearance in iv dosed rat; format: ADME, organism-based; settings: in vivo
# [7] = Genotoxicity in micronucleus
# Salmonella typhimurium = assay: Genotoxicity in Salmonella typhimurium; format: toxicity, organism-based; settings: salmonella enterica subsp. enterica serovar typhimurium
# [8] = Oral bioavailability in rat; format: ADME, organism-based; settings: in vivo
# [9] = Clearance in iv dosed dog; format: ADME, organism-based, Canis lupus familiaris; settings: in vivo
# [10] = Solubility of the compound at pH 7.4; format: physicochemical; settings: buffer
# [11] = target: High affinity cAMP-specific and IBMX-insensitive 3',5'-cyclic phosphodiesterase 8A (Homo sapiens, UniProt O60658); assay: Inhibition of PDE8A
# Chain of High affinity cAMP-specific and IBMX-insensitive 3',5'-cyclic phosphodiesterase 8A (O60658 whole entry): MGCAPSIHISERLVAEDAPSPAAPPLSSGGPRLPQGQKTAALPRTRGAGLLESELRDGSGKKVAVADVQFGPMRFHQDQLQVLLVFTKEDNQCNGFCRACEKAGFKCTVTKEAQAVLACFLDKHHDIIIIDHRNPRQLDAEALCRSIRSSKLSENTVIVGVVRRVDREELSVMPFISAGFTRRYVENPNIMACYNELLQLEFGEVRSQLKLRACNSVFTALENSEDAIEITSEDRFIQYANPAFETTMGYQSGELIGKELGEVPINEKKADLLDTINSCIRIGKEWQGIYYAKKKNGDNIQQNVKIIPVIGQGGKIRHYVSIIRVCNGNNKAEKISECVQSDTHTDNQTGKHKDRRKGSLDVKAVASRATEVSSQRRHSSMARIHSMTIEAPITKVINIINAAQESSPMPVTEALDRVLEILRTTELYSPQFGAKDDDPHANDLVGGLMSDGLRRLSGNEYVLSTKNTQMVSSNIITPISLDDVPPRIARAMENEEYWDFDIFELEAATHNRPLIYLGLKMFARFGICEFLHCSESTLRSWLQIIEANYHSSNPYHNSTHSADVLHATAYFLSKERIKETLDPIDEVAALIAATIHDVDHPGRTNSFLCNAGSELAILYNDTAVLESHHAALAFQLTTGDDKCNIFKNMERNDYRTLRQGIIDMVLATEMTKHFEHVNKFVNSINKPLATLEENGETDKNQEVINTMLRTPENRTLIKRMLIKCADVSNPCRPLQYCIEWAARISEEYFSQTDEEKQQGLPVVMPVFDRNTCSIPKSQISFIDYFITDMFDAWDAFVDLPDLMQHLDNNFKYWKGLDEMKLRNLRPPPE
# Canis familiaris [12] = organism: Canis familiaris; assay: Cardiotoxicity in dog assessed as increase in heart rate at > 10 times IC50; format: toxicity, organism-based, Canis lupus familiaris; settings: in vivo
# [13] = Efflux ratio of permeability of the compound across MDCK cells; format: ADME, cell-based, Canis lupus familiaris; settings: dog
# [14] = Oral bioavailability in dog; format: ADME, organism-based, Canis lupus familiaris; settings: in vivo
# [15] = target: Kappa-type opioid receptor (Homo sapiens) (UniProt P41145); assay: Inhibition of kappa opioid receptor
# Chain of Kappa-type opioid receptor (Homo sapiens) (P41145 whole entry): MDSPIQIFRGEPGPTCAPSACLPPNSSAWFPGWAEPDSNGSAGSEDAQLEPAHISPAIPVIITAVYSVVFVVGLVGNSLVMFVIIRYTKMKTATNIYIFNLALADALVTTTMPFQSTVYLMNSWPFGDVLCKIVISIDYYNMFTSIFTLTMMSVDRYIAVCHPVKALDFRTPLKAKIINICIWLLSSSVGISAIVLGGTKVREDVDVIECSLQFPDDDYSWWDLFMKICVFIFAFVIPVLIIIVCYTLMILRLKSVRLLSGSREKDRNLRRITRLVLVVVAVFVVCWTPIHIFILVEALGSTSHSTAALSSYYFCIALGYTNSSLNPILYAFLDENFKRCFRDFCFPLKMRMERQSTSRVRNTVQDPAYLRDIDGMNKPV
# Pancreatic islet = assay: Induction of insulin secretion in human pancreatic islet cells at 0.001 to 100 uM in presence of glucose; format: functional
# Canis familiaris [16] = organism: Canis familiaris; assay: Cardiotoxicity in dog assessed as increase in blood pressure at > 10 times IC50; format: toxicity, organism-based, Canis lupus familiaris
# [17] = Fraction unbound in human plasma; format: ADME, cell-free
# [18] = target: Voltage-gated inwardly rectifying potassium channel KCNH2 (Homo sapiens, UniProt Q12809); assay: Inhibition of human ERG
# Chain of Voltage-gated inwardly rectifying potassium channel KCNH2 (Q12809 whole entry): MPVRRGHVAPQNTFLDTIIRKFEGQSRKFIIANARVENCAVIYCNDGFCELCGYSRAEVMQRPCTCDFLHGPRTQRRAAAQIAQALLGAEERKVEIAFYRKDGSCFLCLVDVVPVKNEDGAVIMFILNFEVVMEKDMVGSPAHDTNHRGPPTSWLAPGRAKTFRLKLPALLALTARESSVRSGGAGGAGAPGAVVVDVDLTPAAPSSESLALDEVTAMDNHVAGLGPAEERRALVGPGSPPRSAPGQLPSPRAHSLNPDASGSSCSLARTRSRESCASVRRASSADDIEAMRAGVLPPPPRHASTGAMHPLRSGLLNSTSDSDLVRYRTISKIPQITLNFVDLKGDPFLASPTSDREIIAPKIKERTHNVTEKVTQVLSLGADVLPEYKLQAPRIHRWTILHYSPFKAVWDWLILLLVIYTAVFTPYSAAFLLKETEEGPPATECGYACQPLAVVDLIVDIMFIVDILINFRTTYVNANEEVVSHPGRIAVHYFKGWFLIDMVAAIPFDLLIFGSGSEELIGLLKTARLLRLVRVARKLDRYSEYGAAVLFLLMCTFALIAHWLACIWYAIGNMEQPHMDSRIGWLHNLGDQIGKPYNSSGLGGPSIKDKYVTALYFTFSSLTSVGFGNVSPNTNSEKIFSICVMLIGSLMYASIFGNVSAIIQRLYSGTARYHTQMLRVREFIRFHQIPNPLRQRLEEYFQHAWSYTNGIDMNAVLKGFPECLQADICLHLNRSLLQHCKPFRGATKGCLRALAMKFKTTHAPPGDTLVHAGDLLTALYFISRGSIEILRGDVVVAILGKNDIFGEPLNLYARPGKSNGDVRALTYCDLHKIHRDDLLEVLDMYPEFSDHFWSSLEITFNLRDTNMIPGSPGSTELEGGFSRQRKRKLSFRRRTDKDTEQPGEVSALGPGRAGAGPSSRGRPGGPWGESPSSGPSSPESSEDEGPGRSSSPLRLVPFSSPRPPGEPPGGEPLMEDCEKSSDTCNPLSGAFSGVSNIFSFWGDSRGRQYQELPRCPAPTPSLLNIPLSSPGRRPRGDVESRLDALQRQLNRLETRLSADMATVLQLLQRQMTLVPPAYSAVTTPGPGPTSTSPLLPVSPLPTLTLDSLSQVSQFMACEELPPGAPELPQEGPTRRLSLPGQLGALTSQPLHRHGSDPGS
# Homo sapiens [19] = organism: Homo sapiens; assay: Inhibition of PDE
# [20] = Fraction unbound in dog plasma; format: ADME, cell-free, Canis lupus familiaris
# [21] = Fraction unbound in rat plasma; format: ADME, cell-free
# [22] = Solubility of the compound at pH 4; format: physicochemical; settings: buffer
# [23] = Dissociation constant, pKa of the compound; format: physicochemical
# Homo sapiens [24] = organism: Homo sapiens; assay: Selectivity ratio for PDE to PDE8B
# [25] = Solubility of the compound; format: physicochemical
# [26] = Volume of distribution at steady state in iv dosed rat; format: ADME, organism-based; settings: in vivo, read-out: Vdss
# [27] = Volume of distribution at steady state in iv dosed dog; format: ADME, organism-based, Canis lupus familiaris; settings: in vivo, read-out: Vdss
# Liver microsomes = assay: as §1; format: ADME, Microsome; settings: microsomes
compound,measurement,setting,value
Nc1nc(C2CC2)nc2c1nnn2C[C@H]1CCCO1,microsomal CLint,[1],11.9 µL/min/mg
same,microsomal CLint,[2],< 28 µL/min/mg
Nc1nc(C2CC2)nc2c1nnn2C[C@@H]1CCN(Cc2nccs2)C1,IC50,[3],206 nM
same,microsomal CLint,[1],30 µL/min/mg
same,microsomal CLint,[2],230 µL/min/mg
same,inhibition,[4],52%
same,inhibition,[5],62%
Nc1nc(-c2ccccc2)nc2c1nnn2CC1CCCCO1 (centres undefined),microsomal CLint,[1],17 µL/min/mg
Nc1nc(C2CC2)nc2c1nnn2C[C@H]1CN(Cc2nccs2)CCO1,clearance,[6],72 mL/min/kg
same,microsomal CLint,[1],20 µL/min/mg
same,Activity,[7],Non-toxic
same,microsomal CLint,[2],50 µL/min/mg
same,Activity,Salmonella typhimurium,Non-toxic
same,bioavailability,[8],20%
CCc1csc(CN2CCO[C@@H](Cn3nnc4c(N)nc(C)nc43)C2)n1,clearance,[6],24 mL/min/kg
same,microsomal CLint,[1],15 µL/min/mg
same,Activity,[7],Non-toxic
same,microsomal CLint,[2],22 µL/min/mg
same,Activity,Salmonella typhimurium,Non-toxic
same,bioavailability,[8],45%
same,clearance,[9],5.6 mL/min/kg
CCc1cnc(N2CC[C@@H](Cn3nnc4c(N)nc(C5CC5)nc43)C2)nc1,microsomal CLint,[1],52 µL/min/mg
same,microsomal CLint,[2],244 µL/min/mg
Nc1nc(C2CCCCC2)nc2c1nnn2CC1CCCCO1 (centres undefined),microsomal CLint,[1],100 µL/min/mg
Nc1ncnc2c1nnn2CC1CCCCO1 (centres undefined),microsomal CLint,[1],< 7.2 µL/min/mg
Nc1nc(C2CC2)nc2c1nnn2CC1CCCN(Cc2ccccc2)C1 (centres undefined),IC50,[3],3620 nM
same,microsomal CLint,[1],150 µL/min/mg
same,inhibition,[4],64%
same,inhibition,[5],60%
Cc1nc(N)c2nnn(C[C@H]3CN(Cc4nccs4)CCO3)c2n1,IC50,[3],1.3 nM
same,solubility,[10],150 µg/mL
same,clearance,[6],23 mL/min/kg
same,microsomal CLint,[1],< 8 µL/min/mg
same,IC50,[11],1.9 nM
same,Activity,[7],Non-toxic
same,Activity,Canis familiaris [12],Toxic
same,microsomal CLint,[2],< 14 µL/min/mg
same,efflux ratio,[13],3.5
same,bioavailability,[14],100%
same,INH,[15],1.3 µM
same,Activity,Salmonella typhimurium,Non-toxic
same,Activity,Pancreatic islet,Active
same,Activity,Canis familiaris [16],Toxic
same,fraction unbound,[17],0.46
same,bioavailability,[8],63%
same,IC50,[18],> 100000 nM
same,INH,Homo sapiens [19],> 10 µM
same,fraction unbound,[20],0.78
same,clearance,[9],3.5 mL/min/kg
same,fraction unbound,[21],0.88
same,solubility,[22],2900 µg/mL
same,pKa,[23],4.9
same,Selectivity ratio,Homo sapiens [24],> 1000
CC(C)n1cc(Cn2nnc3c(N)nc(C4CC4)nc32)cn1,microsomal CLint,[1],< 7.2 µL/min/mg
Nc1nc(C2CC2)nc2c1nnn2CC1CN(Cc2ccccc2)CCO1 (centres undefined),solubility,[25],soluble
Nc1nc(C2CC2)nc2c1nnn2Cc1cc(C2CC2)n[nH]1,microsomal CLint,[1],< 7.2 µL/min/mg
Cc1ccnc(N2CCCC(Cn3nnc4c(N)nc(C5CC5)nc43)C2)n1 (centres undefined),microsomal CLint,[1],303 µL/min/mg
same,microsomal CLint,[2],625 µL/min/mg
FC(F)(F)c1nc(NCc2cccnc2)c2nnn(CC3CCCCO3)c2n1 (centres undefined),IC50,[3],> 420 nM
CCc1nc(Cn2nnc3c(N)nc(C4CC4)nc32)cs1,clearance,[6],29 mL/min/kg
same,microsomal CLint,[1],24.6 µL/min/mg
same,microsomal CLint,[2],< 14 µL/min/mg
same,bioavailability,[14],< 5%
same,Vd,[26],5.5 L/kg
same,Vd,[27],0.9 L/kg
same,bioavailability,[8],< 5%
same,clearance,[9],11 mL/min/kg
Nc1nc(C(F)(F)F)nc2c1nnn2C[C@H]1CCCO1,clearance,[6],61 mL/min/kg
same,bioavailability,[14],13%
same,Vd,[26],1.7 L/kg
same,Vd,[27],1.4 L/kg
same,bioavailability,[8],17%
same,clearance,[9],22 mL/min/kg
Nc1nc(C(F)(F)F)nc2c1nnn2C[C@H]1CN(Cc2ccccn2)CCO1,clearance,[6],121 mL/min/kg
same,microsomal CLint,[1],36 µL/min/mg
same,Activity,[7],Non-toxic
same,microsomal CLint,[2],36 µL/min/mg
same,Activity,Salmonella typhimurium,Non-toxic
same,clearance,[9],8.5 mL/min/kg
Nc1nc(C2CC2)nc2c1nnn2C[C@H]1CN(Cc2ncccn2)CCO1,clearance,[6],124 mL/min/kg
same,microsomal CLint,[1],16 µL/min/mg
same,Activity,[7],Non-toxic
same,microsomal CLint,[2],75 µL/min/mg
same,Activity,Salmonella typhimurium,Non-toxic
same,clearance,[9],7 mL/min/kg
Nc1nc(C2CC2)nc2c1nnn2CC1CCCCO1 (centres undefined),microsomal CLint,[1],< 7.2 µL/min/mg
same,microsomal CLint,Liver microsomes,93 µL/min/mg
Nc1nc(C2CC2)nc2c1nnn2Cc1ccc(Cl)cc1,microsomal CLint,[1],< 7.2 µL/min/mg
Cc1nc(N)c2nnn(C[C@H]3CN(Cc4cc(F)cc(F)c4)CCO3)c2n1,clearance,[6],28 mL/min/kg
same,microsomal CLint,[1],36 µL/min/mg
same,Activity,[7],Non-toxic
same,microsomal CLint,[2],80 µL/min/mg
same,Activity,Salmonella typhimurium,Non-toxic
same,bioavailability,[8],12%
same,clearance,[9],4.8 mL/min/kg
Nc1nc(C2CC2)nc2c1nnn2CC1CCCOC1 (centres undefined),microsomal CLint,[1],< 7.2 µL/min/mg
same,microsomal CLint,[2],35 µL/min/mg
COCc1nc(N)c2nnn(CC3CCCCO3)c2n1 (centres undefined),microsomal CLint,[1],< 7.2 µL/min/mg
Nc1nc(C2CC2)nc2c1ncn2C[C@H]1CCCO1,IC50,[3],> 2000 nM
